US10500223B2, “Therapeutic agent for myotonic dystrophy” (Osaka University, priority 2015, dated 2019)
Values joined by “and” are separate entries in the source; they are usually repeats but may differ in a detail not shown here. Identical values can stand only once.

Experiments:
[1] = tested on: skeletal muscle chloride channel (Clcn1) gene splicing; test: Aberrant splicing of Clcn1 gene in quadriceps femoris muscle of MyD model mice, intraperitoneal erythromycin; format: in vivo, mouse; conditions: HSA^LR mice, 150 mg/kg intraperitoneal once daily for 8 days, vs physiological saline MyD group
Source text: Erythromycin was intraperitoneally administered to MyD model mice, and its effects on muscle contraction in the quadriceps femoris muscle and on aberrant splicing of the skeletal muscle chloride channel (Clcn1) gene in the quadriceps femoris muscle were examined. The MyD model mice used were HSA^LR mice, which were kindly provided by Dr. Charles Thornton (University of Rochester) and bred in the laboratory animal facility of Osaka University. The HSA^LR mice are transgenic animals prepared by genomic integration of a hACTA gene (human gene constitutively expressed in myocytes) containing 3′-terminal CTG repeats expanded to 220, and manifest the symptoms of MyD upon the expression of mRNA with expanded CUG repeats in the myocytes (Science, 2000, 289 (5485), 1769-73). As a control, wild-type mice (FVB/NJcl mice, purchased from CLEA Japan) were used. Male and female mice aged 8 weeks were used for the experiment. The erythromycin used was “Erythrocin (registered trademark) for intravenous injection 500 mg (erythromycin lactobionate for injection)” (Abbott). This product was dissolved at 50 mg/mL in physiological saline before use. […] The normal PCR product and the aberrant PCR product were separately quantified with an image analyzer (Typhoon 9410, GE), and the percentage of the normal product in the total RT-PCR product was calculated. […]

[2] = tested on: HSA^LR mice; test: Muscle contraction (myotonia) by needle electromyography in MyD model mice, usual-dose oral erythromycin; format: in vivo, mouse; conditions: 50 mg/kg gavage once daily for 21 days, quadriceps femoris muscle, n=3
Description: Usual-dose erythromycin was orally administered to MyD model mice, and its effects on muscle contraction in the quadriceps femoris muscle and on aberrant splicing of the skeletal muscle chloride channel (Clcn1) gene in the quadriceps femoris muscle were examined. The same MyD model mice (HSA^LR mice) and wild-type mice as in Example 3 were used. As with the case in Example 4, “Erythrocin (registered trademark) dry syrup […]% (erythromycin ethylsuccinate dry syrup)” (Abbott) was dissolved at 100 mg/mL in purified water before use. The animals were divided into three groups: an erythromycin 50 mg/kg administration MyD group, a physiological saline administration MyD group and a control (wild-type mice) group (n=3 per group). The administration was gavage administration and performed once daily for 21 consecutive days. On the day of the final administration, needle electromyography was performed in the quadriceps femoris muscle in the mice under anesthesia to record myotonic discharge.

[3] = tested on: C2C12-DMPK800R cells; test: RNA foci formation in MyD model cells (FISH); format: cell-based, mouse; conditions: erythromycin 25 or 50 μM, 72 hours, vs medium without erythromycin
Description: MyD model cells were treated with erythromycin, and the number of RNA foci was measured by the FISH (fluorescence in situ hybridization) method.
The MyD cell model used was cells established by transfection of a DMPK gene containing 800 CTG repeats into C2C12 cells (C2C12-DMPK800R, Nucleic Acids Research, 2014, 42 (10), 6591-6602). The establishment of the C2C12-DMPK800 cells was performed in the following procedure. Both a plasmid (pLC16) with a DMPK gene sequence containing 800 CTG repeats in the 3′-untranslated region and a plasmid expressing PhiC31 integrase were transfected into the C2C12 mouse myoblast cell line using Nucleofector (trade name, Lonza), and stably expressing cells were selected using a selection medium with puromycin. Next, a plasmid expressing Cre recombinase was transfected into the stably expressing cells, and a clone in which the transcription of 800 CUG had been activated was selected using a selection medium with hygromycin. […]
The MyD model cells were cultured in DMEM medium supplemented with 10% FBS and penicillin/streptomycin under the conditions of 37° C. and 5% CO2. […] After mounting in Vectashield with DAPI (trade name, Vector Laboratories), the number of RNA foci in the nucleus was counted with a fluorescence microscope (Keyence PZ-9000).

[4] = tested on: skeletal muscle chloride channel (Clcn1) gene splicing; test: Aberrant splicing of Clcn1 gene in quadriceps femoris muscle of MyD model mice, high-dose oral erythromycin; format: in vivo, mouse; conditions: HSA^LR mice, 300, 600, 900 mg/kg gavage once daily for 5 days
Description: High-dose erythromycin was orally administered to MyD model mice, and its effect on aberrant splicing of the skeletal muscle chloride channel (Clcn1) gene in the quadriceps femoris muscle was examined. The same MyD model mice (HSA^LR mice) and wild-type mice as in Example 3 were used. The erythromycin used was “Erythrocin (registered trademark) dry syrup […]% (erythromycin ethylsuccinate dry syrup)” (Abbott). This product was dissolved at 100 mg/mL in purified water before use. The animals were divided into five groups: an erythromycin 300 mg/kg administration MyD group, an erythromycin 600 mg/kg administration MyD group, an erythromycin 900 mg/kg administration MyD group, a physiological saline administration MyD group and a control (wild-type mice) group (n=3 per group). The administration was gavage administration and performed once daily for five consecutive days. On the day of the final administration, the quadriceps femoris muscle was dissected from each mouse. In the same manner as in Example 3, RT-PCR was performed, the normally spliced product and the aberrantly spliced product were separately quantified, and the percentage of the normal product in the total RT-PCR product was calculated. Statistical analysis was performed using t-test.

[5] = tested on: HSA^LR mice; test: Muscle contraction (myotonia) by needle electromyography in MyD model mice, intraperitoneal erythromycin; format: in vivo, mouse; conditions: 150 mg/kg intraperitoneal once daily for 8 days, quadriceps femoris muscle, 24 h after final administration, n=3
Description: The animals were divided into three groups: an erythromycin administration MyD group, a physiological saline administration MyD group and a control (wild-type mice) group (n=3 (1 male, 2 females) per group). The dose of erythromycin was 150 mg/kg, and this dose was repeatedly administered once daily for 8 days. The physiological saline administration MyD group was repeatedly given physiological saline once daily for 8 days. Nothing was administered to the control (wild-type mice) group.
Twenty-four hours after the final administration, needle electromyography was performed in the quadriceps femoris muscle in the mice under anesthesia to record myotonic discharge. […]

[6] = tested on: skeletal muscle chloride channel (Clcn1) gene splicing; test: Aberrant splicing of Clcn1 gene in quadriceps femoris muscle of MyD model mice, usual-dose oral erythromycin; format: in vivo, mouse; conditions: HSA^LR mice, 50 mg/kg gavage once daily for 21 days, vs physiological saline MyD group
Description: Usual-dose erythromycin was orally administered to MyD model mice, and its effects on muscle contraction in the quadriceps femoris muscle and on aberrant splicing of the skeletal muscle chloride channel (Clcn1) gene in the quadriceps femoris muscle were examined. The same MyD model mice (HSA^LR mice) and wild-type mice as in Example 3 were used. As with the case in Example 4, “Erythrocin (registered trademark) dry syrup […]% (erythromycin ethylsuccinate dry syrup)” (Abbott) was dissolved at 100 mg/mL in purified water before use. The animals were divided into three groups: an erythromycin 50 mg/kg administration MyD group, a physiological saline administration MyD group and a control (wild-type mice) group (n=3 per group). The administration was gavage administration and performed once daily for 21 consecutive days. On the day of the final administration, the quadriceps femoris muscle was dissected from each mouse. In the same manner as in Example 3, RT-PCR was performed, and the normally spliced product and the aberrantly spliced product were separately quantified. Statistical analysis was performed using t-test.

[7] = tested on: Atp2a1 gene exon 22 splicing; test: Aberrant splicing of Atp2a1 exon 22 in MyD model cells (RT-PCR); format: cell-based, mouse; conditions: C2C12-DMPK800R cells, erythromycin 25 or 50 μM, 72 hours
Description: The MyD model cells were treated with erythromycin, and whether erythromycin would correct aberrant splicing in exon 22 of the Atp2a1 gene was examined. The same MyD model cells as in Example 1 (C2C12-DMP[…]) were used. The same erythromycin as in Example 1 was used. To the medium of the MyD model cells, erythromycin was added at 0, 25 or 50 μM, and after 72 hours, the total RNA was extracted using RNeasy Mini Plus Kit (trade name, Qiagen). As a control, normal C2C12 cells were cultured in a medium without erythromycin, and the total RNA was similarly extracted. For RT-PCR, SuperScript III First-Strand Synthesis System (Invitrogen) was used to prepare cDNA, and after treatment with RNase H, the segment of interest was amplified using the Atp2a1 exon 22 RT primers shown below. The RT-PCR product was electrophoresed on a 2% agarose gel and then stained using GelRed. The normal PCR product and the aberrant PCR product were separately quantified with an image analyzer (Typhoon 9410, GE). Atp2a1 exon 22 RT primers

CC[C@H]1OC(=O)[C@H](C)[C@@H](O[C@H]2C[C@@](C)(OC)[C@@H](O)[C@H](C)O2)[C@H](C)[C@@H](O[C@@H]2O[C@H](C)C[C@H](N(C)C)[C@H]2O)[C@](C)(O)C[C@@H](C)C(=O)[C@H](C)[C@@H](O)[C@]1(C)O [erythromycin, (2R,3S,4S,5R,6R,8R,10R,11R,12S,13R)-5-(3,4,6-trideoxy-3-dimethylamino-β-D-xylo-hexopyranosyloxy)-3-(2,6-dideoxy-3-C-methyl-3-O-methyl-α-L-ribo-hexopyranosyloxy)-6,11,12-trihydroxy-2,4,6,8,10,12-hexamethyl-9-oxopentadecan-13-olide]
percentage of the normal product in the total RT-PCR product (Clcn1 exon 7a) [1]: significantly higher percentage of the normal RT-PCR product
severity of muscle contraction (frequency of myotonic discharge), per mouse [2]: 2 (myotonic discharge was observed in 50% or more and less than 90% of the needle insertions.) and 1 (myotonic discharge was observed in less than 50% of the needle insertions.)
percentage of RNA foci positive cells [3]: significantly decreased the percentage of RNA foci positive cells in a dose dependent manner
correction of aberrant splicing of the Clcn1 gene (percentage of normal product) [4]: significantly corrected the aberrant splicing of the Clcn1 gene in a dose dependent manner
severity of muscle contraction (frequency of myotonic discharge), per mouse [5]: 1 (myotonic discharge was observed in less than 50% of the needle insertions.) and no muscle contraction
percentage of the normal RT-PCR product (Clcn1) [6]: significantly higher percentage of the normal RT-PCR product
percentage of the normal product in the total RT-PCR product (Atp2a1 exon 22) [7]: significantly increased the percentage of the normal product to a level observed in the normal C2C12 cells
